Experimental data: ChEMBL document CHEMBL5390264, “Exploring Fatty Acid Mimetics as NR4A Ligands” (J Med Chem, 2023)
Activity calls are given as the source filed them. The rule behind the calls is not given here.

Columns and labels:
[1] = biological target: T1, Peroxisome proliferator-activated receptor alpha (Homo sapiens) (UniProt Q07869); test: Agonist activity at PPARalpha LBD (unknown origin) transiently transfected in HEK293T cells at 1 uM incubated for 16 hrs by Gal4-hybrid reporter gene based Dual-glo luciferase assay; assay type: cell-based
T1 sequence (whole entry): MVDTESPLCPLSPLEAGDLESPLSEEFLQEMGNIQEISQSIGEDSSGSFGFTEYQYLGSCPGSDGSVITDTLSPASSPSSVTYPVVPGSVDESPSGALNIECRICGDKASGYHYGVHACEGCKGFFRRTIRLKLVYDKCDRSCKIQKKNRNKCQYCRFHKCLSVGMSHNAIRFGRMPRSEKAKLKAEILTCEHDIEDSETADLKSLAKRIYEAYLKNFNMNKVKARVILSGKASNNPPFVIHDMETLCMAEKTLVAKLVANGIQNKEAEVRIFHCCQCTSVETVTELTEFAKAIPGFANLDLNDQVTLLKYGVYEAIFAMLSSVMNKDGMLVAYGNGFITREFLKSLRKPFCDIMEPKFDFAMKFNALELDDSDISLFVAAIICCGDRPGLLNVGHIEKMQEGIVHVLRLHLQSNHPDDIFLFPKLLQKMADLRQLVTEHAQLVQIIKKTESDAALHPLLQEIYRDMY

[2] = biological target: T2, Peroxisome proliferator-activated receptor gamma (Homo sapiens) (UniProt P37231); test: Agonist activity at PPARgamma LBD (unknown origin) transiently transfected in HEK293T cells at 1 uM incubated for 16 hrs by Gal4-hybrid reporter gene based Dual-glo luciferase assay; assay type: cell-based
T2 sequence (whole entry): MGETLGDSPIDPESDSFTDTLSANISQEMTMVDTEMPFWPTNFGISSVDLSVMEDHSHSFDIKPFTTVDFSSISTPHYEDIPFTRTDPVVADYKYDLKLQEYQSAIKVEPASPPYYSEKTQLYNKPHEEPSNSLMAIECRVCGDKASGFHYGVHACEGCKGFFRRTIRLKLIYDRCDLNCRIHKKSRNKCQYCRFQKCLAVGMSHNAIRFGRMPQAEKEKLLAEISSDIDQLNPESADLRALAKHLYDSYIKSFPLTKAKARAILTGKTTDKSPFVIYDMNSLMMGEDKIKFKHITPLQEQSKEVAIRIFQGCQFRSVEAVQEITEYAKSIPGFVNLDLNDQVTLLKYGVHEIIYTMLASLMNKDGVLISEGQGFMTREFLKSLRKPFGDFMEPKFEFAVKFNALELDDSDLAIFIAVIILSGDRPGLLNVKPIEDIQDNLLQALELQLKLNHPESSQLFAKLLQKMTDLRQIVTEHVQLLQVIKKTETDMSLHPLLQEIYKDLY

[3] = biological target: T3, Bile acid receptor (Homo sapiens) (UniProt Q96RI1); test: Agonist activity at FXR LBD (unknown origin) transiently transfected in HEK293T cells at 1 uM incubated for 16 hrs by Gal4-hybrid reporter gene based Dual-glo luciferase assay; assay type: cell-based
T3 sequence (whole entry): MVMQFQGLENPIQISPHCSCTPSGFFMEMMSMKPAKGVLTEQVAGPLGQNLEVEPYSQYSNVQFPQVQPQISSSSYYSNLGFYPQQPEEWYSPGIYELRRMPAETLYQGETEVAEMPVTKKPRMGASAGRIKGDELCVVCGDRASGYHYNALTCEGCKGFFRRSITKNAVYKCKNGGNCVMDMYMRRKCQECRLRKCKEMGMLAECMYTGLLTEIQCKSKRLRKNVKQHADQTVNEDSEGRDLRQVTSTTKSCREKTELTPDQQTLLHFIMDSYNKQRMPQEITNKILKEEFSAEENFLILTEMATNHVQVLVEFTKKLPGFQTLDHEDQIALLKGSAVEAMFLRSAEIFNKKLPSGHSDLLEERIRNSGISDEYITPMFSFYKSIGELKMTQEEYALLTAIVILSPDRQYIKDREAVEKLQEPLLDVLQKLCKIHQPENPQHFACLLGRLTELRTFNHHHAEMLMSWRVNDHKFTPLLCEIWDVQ

[4] = Selectivity ratio for agonist activity at RARalpha LBD (unknown origin) transiently transfected in HEK293T cells to agonist activity at human Nur77 LBD transiently transfected in HEK293T cells; assay type: cell-based
[5] = Selectivity ratio for agonist activity at PPARdelta LBD (unknown origin) transiently transfected in HEK293T cells to agonist activity at human Nur77 LBD transiently transfected in HEK293T cells; assay type: cell-based
[6] = Selectivity ratio for agonist activity at FXR LBD (unknown origin) transiently transfected in HEK293T cells to agonist activity at human Nur77 LBD transiently transfected in HEK293T cells; assay type: cell-based
[7] = Selectivity ratio for agonist activity at PPARalpha LBD (unknown origin) transiently transfected in HEK293T cells to agonist activity at human Nurr1 LBD transiently transfected in HEK293T cells; assay type: cell-based
[8] = Selectivity ratio for agonist activity at PPARgamma LBD (unknown origin) transiently transfected in HEK293T cells to agonist activity at human Nurr1 LBD transiently transfected in HEK293T cells; assay type: cell-based
[9] = Selectivity ratio for agonist activity at PPARdelta LBD (unknown origin) transiently transfected in HEK293T cells to agonist activity at human Nurr1 LBD transiently transfected in HEK293T cells; assay type: cell-based
[10] = Selectivity ratio for agonist activity at FXR LBD (unknown origin) transiently transfected in HEK293T cells to agonist activity at human Nurr1 LBD transiently transfected in HEK293T cells; assay type: cell-based
[11] = Selectivity ratio for agonist activity at RARalpha LBD (unknown origin) transiently transfected in HEK293T cells to agonist activity at human NOR-1 LBD transiently transfected in HEK293T cells; assay type: cell-based
[12] = biological target: T4, Nuclear receptor subfamily 4 group A member 2 (Homo sapiens, UniProt P43354); test: Agonist activity at full length human Nurr1 transiently transfected in HEK293T cells co-transfected with pFR-Luc-NBRE incubated for 16 hrs by Gal4-hybrid reporter gene based Dual-glo luciferase assay; assay type: cell-based
T4 sequence (P43354 whole entry, the tested form may be a part): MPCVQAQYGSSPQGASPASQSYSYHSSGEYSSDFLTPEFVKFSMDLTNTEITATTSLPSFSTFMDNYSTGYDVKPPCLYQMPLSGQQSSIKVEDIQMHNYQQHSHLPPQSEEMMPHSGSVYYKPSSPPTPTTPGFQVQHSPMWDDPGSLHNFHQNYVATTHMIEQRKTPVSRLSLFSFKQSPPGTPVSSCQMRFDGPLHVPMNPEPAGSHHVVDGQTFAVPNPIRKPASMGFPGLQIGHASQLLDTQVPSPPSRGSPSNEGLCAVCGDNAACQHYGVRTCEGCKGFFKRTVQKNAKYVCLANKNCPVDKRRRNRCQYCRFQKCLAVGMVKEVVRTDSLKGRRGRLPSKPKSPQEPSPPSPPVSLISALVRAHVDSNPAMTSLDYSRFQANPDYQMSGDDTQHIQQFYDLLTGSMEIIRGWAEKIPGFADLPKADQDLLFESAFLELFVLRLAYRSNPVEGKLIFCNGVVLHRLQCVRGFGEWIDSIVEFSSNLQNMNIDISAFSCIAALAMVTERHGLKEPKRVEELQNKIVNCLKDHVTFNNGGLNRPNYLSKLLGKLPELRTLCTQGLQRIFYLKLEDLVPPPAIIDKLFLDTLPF

[13] = biological target: T4, Nuclear receptor subfamily 4 group A member 2; conditions: filed as agonist, dose 100.0 µM
[14] = biological target: T4, Nuclear receptor subfamily 4 group A member 2; conditions: filed as agonist, dose 100.0 µM; remark: listed apart in the source

CC(C)(C)c1ccc(COc2cccc(C(=O)O)c2)cc1
Activity [1]: inactive
Activity [2]: inactive
Activity [3]: inactive
Selectivity ratio [4]: > 30
Selectivity ratio [5]: > 30
Selectivity ratio [6]: > 30
Selectivity ratio [7]: > 30
Selectivity ratio [8]: > 30
Selectivity ratio [9]: > 30
Selectivity ratio [10]: > 30
Selectivity ratio [11]: > 30
EC50 [12]: 0.013 µM
deltaH [13]: -4 kcal/mol
-TdeltaS [14]: -5.2 kcal/mol
